In article PMC6691788, “Design and synthesis of phthalazine-based compounds as potent anticancer agents with potential antiangiogenic activity via VEGFR-2 inhibition” (Journal of Enzyme Inhibition and Medicinal Chemistry, 2019):

Legend:
Assay in all cases: NCI 60 cell panel SRB screen
UACC-62 = assay type: cell-based; settings: for activity at 10 µM: UACC-62, read-out: percent cell growth promotion
KM12 = assay type: cell-based; settings: Homo sapiens; for activity at 10 µM: KM12, single dose 10 μM, read-out: percent cell growth promotion
MALME-3M = assay type: cell-based; settings: Homo sapiens; for activity at 10 µM: read-out: percent cell growth promotion
SF-295 = assay type: cell-based; settings: Homo sapiens; for activity at 10 µM: SF-295, single dose 10 μM, read-out: percent cell growth promotion
OVCAR-3 = assay type: cell-based; settings: Homo sapiens; for activity at 10 µM: OVCAR-3, single dose 10 μM, read-out: percent cell growth promotion
SNB-19 = assay type: cell-based; settings: Homo sapiens; for activity at 10 µM: SNB-19, single dose 10 μM, read-out: percent cell growth promotion
786-0 = assay type: cell-based; settings: Homo sapiens; for activity at 10 µM: 786-0, single dose 10 μM, read-out: percent cell growth promotion
MCF7 = assay type: cell-based; settings: Homo sapiens; for activity at 10 µM: MCF7, read-out: percent cell growth promotion
HCC-2998 = assay type: cell-based; settings: Homo sapiens; for activity at 10 µM: HCC-2998, single dose 10 μM, read-out: percent cell growth promotion
RXF 393 = assay type: cell-based; settings: Homo sapiens; for activity at 10 µM: RXF 393, single dose 10 μM, read-out: percent cell growth promotion
NCI-H23 = assay type: cell-based; settings: Homo sapiens; for activity at 10 µM: NCI-H23, single dose 10 μM, read-out: percent cell growth promotion
CCRF-CEM = assay type: cell-based, human; settings: Homo sapiens; for activity at 10 µM: single dose 10 μM, read-out: percent cell growth promotion
HCT-116 = assay type: cell-based; settings: Homo sapiens; for activity at 10 µM: HCT-116, single dose 10 μM, read-out: percent cell growth promotion
RPMI-8226 = assay type: cell-based; settings: Homo sapiens; for activity at 10 µM: RPMI-8226, single dose 10 μM, read-out: percent cell growth promotion
HL-60(TB) = assay type: cell-based; settings: Homo sapiens; for activity at 10 µM: single dose 10 μM, read-out: percent cell growth promotion
SR = assay type: cell-based; settings: Homo sapiens; for activity at 10 µM: single dose 10 μM, read-out: percent cell growth promotion
PC-3 = assay type: cell-based; settings: Homo sapiens; for activity at 10 µM: PC-3, single dose 10 μM, read-out: percent cell growth promotion
HCT-15 = assay type: cell-based; settings: Homo sapiens; for activity at 10 µM: HCT-15, single dose 10 μM, read-out: percent cell growth promotion
NCI-H226 = assay type: cell-based; settings: Homo sapiens; for activity at 10 µM: NCI-H226, single dose 10 μM, read-out: percent cell growth promotion
[1] = 5 log dose, 48 h, read-out: LC50 (the source's name)

`O=C(Nc1ccc(Cl)cc1)Nc1ccc(Oc2nncc3ccccc23)cc1` [Compound 7b, 1–(4-Chlorophenyl)-3–(4-(phthalazin-1-yloxy)phenyl)urea] was tested, and the GI50 (UACC-62; Homo sapiens, UACC-62) was 1080 nM, the activity at 10 µM (UACC-62; Homo sapiens) was -14.3% and the CC50 (UACC-62; Homo sapiens, UACC-62, 5 log dose, 48 h, read-out: LC50 (the source's name)) was 14000 nM. For the same molecule, the TGI (UACC-62; UACC-62, 5 log dose) was 3460 nM, the GI50 (KM12; KM12, 5 log dose) was 880 nM and the IC (TGI) (KM12; KM12, 5 log dose) was 2650 nM. It also gave a CC50 (KM12; KM12, 5 log dose, 48 h, read-out: LC50 (the source's name)) of 7380 nM, an activity at 10 µM (KM12) of -32.3% and a GI50 (MALME-3M; Malme-3M) of 440 nM. It also gave an IC (TGI) (MALME-3M; Malme-3M, read-out: TGI) of 2310 nM, an activity at 10 µM (MALME-3M; Malme-3M) of 0.78% and a CC50 (MALME-3M; MALME-3M, 5 log dose, 48 h, read-out: LC50 (the source's name)) of 9690 nM. It also gave a GI50 (SF-295; SF-295, 5 log dose) of 2540 nM, an IC (TGI) (SF-295; SF-295, 5 log dose) of 6270 nM and a CC50 (SF-295; SF-295, 5 log dose, 48 h, read-out: LC50 (the source's name)) of 36900 nM. It also gave an activity at 10 µM (SF-295) of 40.7%, a GI50 (OVCAR-3; OVCAR-3, 5 log dose) of 350 nM and an IC (TGI) (OVCAR-3; OVCAR-3, 5 log dose) of 1150 nM. For the same molecule, the CC50 (OVCAR-3; OVCAR-3, 5 log dose, 48 h, read-out: LC50 (the source's name)) was 3950 nM, the activity at 10 µM (OVCAR-3) was -62.8% and the GI50 (SNB-19; SNB-19, 5 log dose) was 1740 nM. The IC (TGI) (SNB-19; SNB-19, 5 log dose) was 4790 nM, the CC50 (SNB-19; SNB-19, 5 log dose, 48 h, read-out: LC50 (the source's name)) was 58300 nM and the activity at 10 µM (SNB-19) was -76.5%. For the same molecule, the GI50 (786-0; 786-0, 5 log dose) was 870 nM, the IC (TGI) (786-0; 786-0, 5 log dose) was 2350 nM and the IC (TGI) (MCF7; MCF7, read-out: TGI) was 1890 nM. It also gave an activity at 10 µM (MCF7) of 14.3%, a GI50 (MCF7; MCF7, 5 log dose, read-out: GI50) of 320 nM and a GI50 (HCC-2998; HCC-2998, 5 log dose) of 1840 nM. For the same molecule, the IC (TGI) (HCC-2998; HCC-2998, 5 log dose) was 3480 nM, the LC50 (50% lethal concentration) (HCC-2998; HCC-2998, 5 log dose, 48 h) was 6570 nM and the activity at 10 µM (HCC-2998) was -42.2%. For the same molecule, the GI50 (RXF 393; RXF 393, 5 log dose) was 310 nM, the IC (TGI) (RXF 393; RXF 393, 5 log dose) was 1050 nM and the CC50 (RXF 393; RXF 393, 5 log dose, 48 h, read-out: LC50 (the source's name)) was 3740 nM. For the same molecule, the activity at 10 µM (RXF 393) was -91.2%, the GI50 (NCI-H23; NCI-H23, 5 log dose) was 750 nM and the IC (TGI) (NCI-H23; NCI-H23, 5 log dose) was 2870 nM. For the same molecule, the CC50 (NCI-H23; NCI-H23, 5 log dose, 48 h, read-out: LC50 (the source's name)) was 9610 nM, the activity at 10 µM (NCI-H23) was 0.5% and the GI50 (CCRF-CEM; 5 log dose) was 320 nM. It also gave a CC50 (CCRF-CEM; [1]) greater than 100000 nM, an activity at 10 µM (CCRF-CEM) of 8.7% and a GI50 (HCT-116; HCT-116, 5 log dose) of 320 nM. It also gave an IC (TGI) (HCT-116; HCT-116, 5 log dose) of 1200 nM, an LC50 (lethal concentration 50%) (HCT-116; HCT-116, 5 log dose, 48 h) of 4650 nM and an activity at 10 µM (HCT-116) of -56.9%. For the same molecule, the GI50 (RPMI-8226; RPMI-8226, 5 log dose) was 480 nM, the IC (TGI) (RPMI-8226; RPMI-8226, 5 log dose) was 4580 nM and the CC50 (RPMI-8226; RPMI-8226, 5 log dose, 48 h, read-out: LC50 (the source's name)) was greater than 100000 nM. It also gave an activity at 10 µM (RPMI-8226) of -0.08%, a GI50 (HL-60(TB); 5 log dose) of 1080 nM and an IC (TGI) (HL-60(TB); 5 log dose) of 13400 nM. It also gave a CC50 (HL-60(TB); [1]) greater than 100000 nM, an activity at 10 µM (HL-60(TB)) of 3.65% and a GI50 (SR; 5 log dose) of 400 nM. It also gave an IC (TGI) (SR; 5 log dose) greater than 100000 nM, a CC50 (SR; [1]) greater than 100000 nM and an activity at 10 µM (SR) of 2.64%. For the same molecule, the GI50 (PC-3; PC-3, 5 log dose) was 1640 nM, the IC (TGI) (PC-3; PC-3, 5 log dose) was 6080 nM and the CC50 (PC-3; PC-3, 5 log dose, 48 h, read-out: LC50 (the source's name)) was 35600 nM. For the same molecule, the activity at 10 µM (PC-3) was -29%, the GI50 (HCT-15; HCT-15, 5 log dose) was 960 nM and the IC (TGI) (HCT-15; HCT-15, 5 log dose) was 3080 nM. It also gave a CC50 (HCT-15; HCT-15, 5 log dose, 48 h, read-out: LC50 (the source's name)) of 9670 nM, an activity at 10 µM (HCT-15) of 2.76% and a GI50 (NCI-H226; NCI-H226, 5 log dose) of 620 nM. The IC (TGI) (NCI-H226; NCI-H226, 5 log dose) was 5420 nM, the CC50 (NCI-H226; NCI-H226, 5 log dose, 48 h, read-out: LC50 (the source's name)) was greater than 100000 nM and the activity at 10 µM (NCI-H226) was -54.5%.
In the case of `Cc1nnc(Oc2ccc(NC(=O)Nc3ccc(Cl)cc3)cc2)c2ccccc12` [Compound 7e, 1–(4-Chlorophenyl)-3–(4-(4-methylphthalazin-1-yloxy)phenyl)urea], the activity at 10 µM (UACC-62; Homo sapiens) is reported as 45.8%, the activity at 10 µM (KM12) is reported as 57.7% and the activity at 10 µM (MALME-3M; Malme-3M) is reported as 92.6%. The activity at 10 µM (SF-295) was 91.8%, the activity at 10 µM (OVCAR-3) was 69.8% and the activity at 10 µM (SNB-19) was 84.1%. For the same molecule, the activity at 10 µM (786-0) was 83.9%, the activity at 10 µM (MCF7) was 72.7% and the activity at 10 µM (HCC-2998) was 110%. It also gave an activity at 10 µM (RXF 393) of 82%, an activity at 10 µM (NCI-H23) of 84.9% and an activity at 10 µM (CCRF-CEM) of 40.2%. The activity at 10 µM (HCT-116) was 72.5%, the activity at 10 µM (RPMI-8226) was 55.6% and the activity at 10 µM (HL-60(TB)) was 80.1%. The activity at 10 µM (SR) was 38.5%, the activity at 10 µM (PC-3) was 39% and the activity at 10 µM (HCT-15) was 69.5%. The activity at 10 µM (NCI-H226) was 79.1%.
`CCOC(=O)N1CCN(c2nncc3ccccc23)CC1` [Compound 8a, Ethyl 4-(phthalazin-1-yl)piperazine-1-carboxylate] showed an activity at 10 µM (UACC-62; Homo sapiens) of 103%, an activity at 10 µM (KM12) of 104% and an activity at 10 µM (MALME-3M; Malme-3M) of 109%. It also gave an activity at 10 µM (SF-295) of 102%, an activity at 10 µM (OVCAR-3) of 105% and an activity at 10 µM (SNB-19) of 103%. For the same molecule, the activity at 10 µM (786-0) was 106%, the activity at 10 µM (MCF7) was 103% and the activity at 10 µM (HCC-2998) was 117%. The activity at 10 µM (RXF 393) was 102%, the activity at 10 µM (NCI-H23) was 105% and the activity at 10 µM (CCRF-CEM) was 96.9%. It also gave an activity at 10 µM (HCT-116) of 99.1%, an activity at 10 µM (RPMI-8226) of 101% and an activity at 10 µM (HL-60(TB)) of 108%. The activity at 10 µM (SR) was 102%, the activity at 10 µM (PC-3) was 92.6% and the activity at 10 µM (HCT-15) was 111%. For the same molecule, the activity at 10 µM (NCI-H226) was 100%.
